Assay results published in PubChem BioAssay (NCI).
Several values for one entry are separate records, joined by “and”; a condition that tells them apart may be missing. Equal entries are not always repeated.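 Five compound concentrations were applied to cells in 96-well plates for 48 hours; endpoints were derived by simple linear interpolation of the resulting dose-response curve. The concentration for 50% growth inhibition is given as GI50. At the TGI there is no net growth.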

Tests used:
Test in all cases: inhibition of tumour cell growth, NCI panel, 48 h
[1] = test system: BT-549 breast
[2] = test system: DLD-1 colon
[3] = test system: HOP-62 NSCLC
[4] = test system: IGROV1 ovarian
[5] = test system: LXFL 529 NSCLC
[6] = test system: M14 melanoma
[7] = test system: SF-539 CNS
[8] = test system: SK-MEL-5 melanoma
[9] = test system: TK-10 renal
[10] = test system: UACC-62 melanoma

Row | Compound | TGI [1] | TGI [2] [µM] | TGI [3] | GI50 [4] | TGI [4] | TGI [5] [µM] | GI50 [6] [µM] | TGI [6] | TGI [7] | GI50 [8] [µM] | TGI [8] | TGI [9] | TGI [10] | GI50 [1] | GI50 [3] [µM] | GI50 [9] | GI50 [10] [µM] | GI50 [2] [µM] | GI50 [7] [µM]
1 | CC(=O)[O-].CC(=O)[O-].[Mn+2].c1ccc(/C(=N\Nc2ccccn2)c2ccccn2)cc1 | 14.4 µM | 22.7 | 5.69 µM | 0.0271 µM and 0.141 µM | 3.59 µM | 17.2 | 0.0349 | 1.38 µM | 0.665 µM | 0.0567 | 5.38 µM | 54.6 µM | 1.13 µM |  |  |  |  |  | 
2 | N=c1nc(N)c2cc3c(N)nc(=N)c3cc12 | 51 µM | > 100 | 38.5 µM |  | > 100 µM | > 100 |  | 27.9 µM | 31.5 µM |  | > 100 µM | 57.2 µM | 23.5 µM |  |  |  |  |  | 
3 | COc1cccc(/C=C(/C(=O)O)c2cc(OC)c(OC)c(OC)c2)c1 |  | > 100 | > 100 µM |  | > 100 µM | > 100 |  | > 100 µM | > 100 µM |  | > 100 µM | > 100 µM | > 100 µM |  |  |  |  |  | 
4 | CSc1nc(NC2OCC(OC(C)=O)C(OC(C)=O)C2OC(C)=O)c(N=CC=Nc2c(NC3OCC(OC(C)=O)C(OC(C)=O)C3OC(C)=O)nc(SC)n(C)c2=O)c(=O)n1C (centres undefined) |  | > 100 | > 100 µM |  | > 100 µM | > 100 |  | > 100 µM | > 100 µM |  | > 100 µM | > 100 µM | > 100 µM |  |  |  |  |  | 
5 | COc1ccc2[nH]c3c4c(c5cc(C(C)(C)C)ccc5c3c2c1)C(=O)N(c1ccccc1)C4=O |  | 30.3 | > 100 µM |  | > 100 µM | > 100 |  | > 100 µM | 49 µM |  | > 100 µM | > 100 µM | > 100 µM |  |  |  |  |  | 
6 | CN1CCC23c4c5ccc(O)c4OC2C(=NN=C2CCC4(O)C6Cc7ccc(O)c8c7C4(CCN6C)C2O8)CCC3(O)C1C5 (centres undefined) |  | > 100 | > 100 µM |  | > 100 µM | > 100 |  | > 100 µM | > 100 µM |  | > 100 µM | > 100 µM | > 100 µM |  |  |  |  |  | 
7 | NC1=NC(=O)N2CC12 (centres undefined) | 166 µM | > 100 | > 100 µM and 1250 µM | 86.8 µM and 261 µM | > 100 µM and 1100 µM | > 100 |  | > 100 µM and 273 µM | > 100 µM and 206 µM | 638 | > 100 µM and 1450 µM | > 100 µM and 389 µM | > 100 µM and 408 µM | 47.9 µM and 62.6 µM | 570 | 65.1 µM and 144 µM | 130 |  | 
8 | C=C(C)C(=O)NC(N)=NC#N | 28.4 µM and 192 µM | 261 | 362 µM | 168 µM | > 75.1 µM and 309 µM | 191 | 21 | 47.8 µM and 131 µM | 73.3 µM and 290 µM | 171 | 310 µM | 98.6 µM and 126 µM | > 81.7 µM and 230 µM | 67.9 µM | 206 | 33 µM | 87 | 111 | 154
